# Test results as given in PubChem BioAssay AID624491 (Broad Institute, 2012).
# Tested on: D54 ERlucT glycosylation luciferase reporter, luminescence, 24 h
# Experiment: N-linked glycosylation inhibitors, luciferase reporter, dose response, D54 ERlucT cells, luminescence, cherry-picks (AID 624491);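 further: signal gain reflects blocked N-linked glycosylation of a luciferase reporter; actives raise luciferase signal so AC26 marks activators of the reporter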
row,Structure (SMILES),AC26 [nM]
1,Cc1ccc(-c2cc(C(=O)N3CC(C)OC(C)C3)c3ccccc3n2)o1 (centres undefined),4280
2,COc1ccc(NCC(=O)n2c(C)c(C)c3ccccc32)cc1,3640
3,O=C(c1ccc2ncsc2c1)N1CCN(c2cccc(C(F)(F)F)c2)CC1,4190
4,CCOC(=O)c1c(NC(C)=O)sc2c(OCCN(CC)CC)c(Br)ccc12,2690
5,COc1ccccc1-n1cnc2cc(NCc3cccs3)ccc21,141
6,COc1cc(Nc2nc3c(N)cc(C(F)(F)F)cc3nc2-c2ccccc2)cc(OC)c1OC,868
7,Cn1cc(C(=O)N/N=C/C(Br)=C/c2ccccc2)ccc1=O,2850
8,COc1ccc(/C=C2\CC/C(=C\c3ccc(OC)c(OC)c3)C2=O)cc1OC,3790
9,O=c1[nH]c(CSc2ncnc3sc(-c4ccccc4)cc23)nc2ccccc12,4470
10,CC(CC(=O)Nc1ccc2c(c1)c(=O)n(C)n2-c1cccs1)c1ccccc1 (centres undefined),6270
11,CCCNS(=O)(=O)c1cccc(C(=O)OCc2cc(=O)oc3cc(OC)ccc23)c1,834
12,CS(=O)(=O)Nc1cccc(NC(=O)C2Cc3c(-c4ccccc4)ccnc3O2)c1 (centres undefined),2360
13,CC(=O)Nc1cccc(-c2ccnc3c2CC(C)(C(=O)NCC2CC2)O3)c1 (centres undefined),5110
14,Cn1c(=O)[nH]c(=O)c2c1nc(N(CCO)Cc1ccccc1)n2CCCc1ccccc1,800
15,CCOC(=O)c1ccc(/C=C2/C=C(c3ccccc3)N(c3ccc(Cl)c(C(=O)O)c3)C2=O)cc1,1840
16,COc1ccc(CCn2c(=N)c(C(=O)NCCN3CCOCC3)cc3c(=O)n4cccc(C)c4nc32)cc1OC,739
17,COc1ccc(/C=C2\SC(=S)N(CCC(=O)NC3CCCC3)C2=O)cc1OC,6270
18,C[C@@]12C(=O)Nc3cc(Cl)ccc3C(=O)N1[C@H]1c3cc(Br)ccc3OC[C@@H]1[C@@H]2c1ccccc1,961
19,Cc1nc2c3cc(Cl)ccc3n(CCN3CCCCC3)c2s1,896
20,CC1(C(=O)NCCC(F)(F)F)Cc2c(-c3cccc(C(F)(F)F)c3)ccnc2O1 (centres undefined),15200
21,COc1cc(/C=C/C(=O)OCC(=O)NCc2ccc(F)cc2)ccc1O,1590
22,COc1cc2c(cc1OC)C(c1cccs1)N(C(=O)c1cccnc1)CC2 (centres undefined),806

row,Structure (SMILES),AC26 [nM]
1,CN(C)c1ccc(/C=C/C(=O)c2ccc(C(C)(C)C)cc2)cc1[N+](=O)[O-],5570
2,COc1ccc2[nH]c(C(=O)N/N=C/c3ccccc3OC)cc2c1,1010
3,COc1ccccc1/C=C/C(=O)/C=C/c1ccccc1O,696
4,CC(=O)Nc1ccc(CNc2ncnc3ccc(-c4c(C)noc4C)cc23)cc1,290
5,COc1ccccc1N1CCN(S(=O)(=O)CCNC(=O)c2cc(OC)c(OC)c(OC)c2)CC1,3850
6,Cc1c(C(=O)N/N=C/c2cccnc2)sc(N)c1C#N,2000
7,Cc1ccc(C(=O)N2CCN(Cc3ccccc3)CC2)cc1S(=O)(=O)N1CCOCC1,1670
8,CN1CCc2nc3sc(C#N)c(N)c3c(-c3cccs3)c2C1,261
9,COc1ccc(Cl)cc1NC(=O)CN(C)CC(=O)Nc1ccccc1N1CCOCC1,658
10,O=C1CCCN1c1ccc(S(=O)(=O)Nc2ccc3c(c2)OCCO3)cc1,9890
11,CCn1c(=O)c([N+](=O)[O-])c(Cl)c2ccccc21,1390
12,CCOC(=O)C(C)Oc1cccc2c(=O)n(CC(=O)NCc3ccc(F)cc3)ccc12 (centres undefined),1720
13,COc1ccc(C(=O)/C=C/c2ccc(OC(=O)c3cc(OC)c(OC)c(OC)c3)cc2)cc1,3740
14,COc1ccc(C(=O)NCc2nnc(SCC(=O)NO)n2Cc2ccccc2)cc1,4440
15,COc1cc(C2c3cc4c(cc3OC(Nc3ccc(C(=O)O)cc3)C2C)OCO4)cc(OC)c1OC (centres undefined),10700
16,COc1ccc2c(c1)c(C(=O)N/N=C/c1ccc(Br)cc1)c(C)n2C,17100
17,CCOc1ccccc1C(=O)Nc1ccsc1C(=O)OC,1300
18,CCN(CC)S(=O)(=O)c1ccc(N2CCOCC2)c(NC(=O)c2[nH]c(C)c(C(C)=O)c2C)c1,1860
19,COc1cc(NC(=O)c2ccccc2F)ccc1NC(=O)c1cc2ccccc2o1,2390
20,CCOc1ccc(OCC)c(NC(=O)c2nnn(CC(=O)Nc3cc(C)cc(C)c3)c2N)c1,6440
21,CC1(C(=O)NCc2ccco2)Cc2c(-c3cccc(C(N)=O)c3)ccnc2O1 (centres undefined),1450
22,Cn1c(=O)n(C)c2cc(NS(=O)(=O)c3ccccc3)ccc21,3430

row,Structure (SMILES),AC26 [nM]
1,COc1cc(OC)cc(C(=O)c2c(C)c(C#N)c3ccccn23)c1,1220
2,Cc1nnc2c3ccccc3c(-c3cccs3)nn12,3170
3,COc1cccc(Sc2ccccc2/C=N/NC(N)=O)c1,8340
4,Cc1ccc2c(c1)c1ccc3c(c1n2C)C(=O)C=CC3=O,948
5,O=c1cc(-c2ccccc2)[nH]c2cc(F)ccc12,327
6,CN(C)CCNc1ccc2nnn3c4ccc(O)cc4c(=O)c1c23,52
7,C#CC[N+](C)(C)CCCCCCCCCCCC,7360
8,Cc1ccc(Nc2nc(N)nc(CN3CCN(Cc4ccccc4)CC3)n2)cc1Cl,110
9,CCOC(=O)N1CCc2cc(OC)c(OC)c3c2c1cc1cc(OC)c(OC)cc13,11100
10,O=C1OCC2=C1C(c1ccc3c(c1)OCO3)c1cc3c(cc1O2)OCO3 (centres undefined),661
11,O=C(C[C@H]1C/C=C\C[C@H](Cc2ccc(F)cc2)C(=O)O[C@@H](c2ccccc2)CNC1=O)N[C@@H](CO)Cc1ccccc1,892
12,CNC(=O)c1cccc(NC(=O)c2ccccc2OCc2ccccc2)c1,355
13,Cc1nc2ccccc2c2oc(C(=O)NCCCN3CC(C)CC(C)C3)cc12 (centres undefined),5380
14,O=C(Nc1ccccc1O)c1ccc(NS(=O)(=O)c2cccc3cccnc23)cc1,3930
15,Cc1ccc(S/C=C\C(=O)c2ccccc2)cc1,3170
16,COc1ccc(F)cc1-c1cc(NC(C)=O)c2ncc(-c3cc(OC)c(OC)c(OC)c3)n2c1,11300
17,CN(C)S(=O)(=O)c1ccc(N2CCCC2)c(C(=O)Nc2nc3ccccc3s2)c1,545
18,Cc1cc(=O)[nH]c(N/N=C/c2cc(C)n(CC(F)(F)F)c2C)n1,47.6
19,COc1ccc(C)cc1NC(=O)CCCNC(=O)Cn1cnc2sc(C)c(C)c2c1=O,7090
20,COc1ccc(NC(=O)C(=O)NCC2CCCN2S(=O)(=O)c2cccs2)cc1 (centres undefined),5020
21,COc1cc2c(cc1OC)C(c1ccccc1)N(C(=O)c1ccco1)CC2 (centres undefined),315
22,Nc1ccc(C(=O)N2CCN(S(=O)(=O)c3ccc4c(c3)OCCO4)CC2)cc1[N+](=O)[O-],3880

row,Structure (SMILES),AC26 [nM]
1,COc1cc2c(cc1OC)C(c1cccs1)N(C(=S)NC(C)C)CC2 (centres undefined),252
2,COc1ccccc1OCC(=O)NNC(=O)c1ccoc1C,722
3,COc1cc2c(cc1OC)C(c1ccccc1)N(C(=O)c1cccc(S(C)(=O)=O)c1)CC2 (centres undefined),193
4,COc1ccc(N2CCc3c(C)nc4c(OC)cc(OC)cc4c32)cc1,3770
5,O=C(c1cccc(N2CCCC2=O)c1)N1CCN(c2cccc(Cl)c2)CC1,2600
6,CN(C)CCNC(=O)c1cccc2nc3c(ccc4ccccc43)nc12,719
7,Cc1cc(C)n(-c2nnc3n2N=C(c2c[nH]c4ccccc24)CS3)n1,3510
8,Cc1ccc(C(=O)N2C(CC(=O)Nc3ccc(Cl)cc3)C(=O)NC3CCCCC32)cc1 (centres undefined),12600
9,O=C(/C=C/Sc1ccc(C(F)(F)F)cn1)c1ccccc1,3910
10,Cc1ccc(OCCNC(=O)C(=O)NCc2ccco2)cc1,6100
11,Cc1c(Cl)cccc1Nc1nc(N)nc(CN2CCc3ccccc3C2)n1,320
12,COc1cc(C2=NOC(C(=O)NCc3ccco3)C2)cc(OC)c1OC (centres undefined),1030
13,CCCCCC(O)C=CC1C(O)CC(O)C1CC=CCCCC(=O)O (centres undefined),7.83
14,O=C(/C(=C\c1ccccc1)c1nc2ccccc2[nH]1)c1ccc(Cl)cc1,1000
15,COc1ccc(S(=O)(=O)N2CCCCC2)cc1NC(=O)c1[nH]c(C)c(C(C)=O)c1C,1630
16,O=C1C=C(c2cccs2)C[C@H](c2ccccc2)[C@H]1n1nnc([N+](=O)[O-])n1,260
17,OC1CCCN(Cc2ccc3ccc4cccc5ccc2c3c45)C1 (centres undefined),4270
18,COc1ccc([C@@H]2[C@@H]3C(=O)N(C(C)(C)C)C(=O)[C@@H]3[C@]3(Cc4ccccc4)C(=O)N(c4cccc(Cl)c4)C(=O)N23)cc1,2990
19,COc1ccccc1NC(=O)Cn1nnc(C(=O)NCc2cccs2)c1N,867
20,Cc1cc(C)cc(NC2=NC3(CCCCC3)N=C(N)N2)c1,545
21,Cc1cc(=O)oc2cc(NC(=O)c3cccc(S(C)(=O)=O)c3)ccc12,2310
22,c1ccc(C2=Nn3c(nnc3-c3n[nH]c4c3CCC4)SC2)cc1,4020

row,Structure (SMILES),AC26 [nM]
1,CCOC(=O)c1c(CN(C)C)n(C)c2c(O)c(N=NC(N)=O)c3ccc(Br)cc3c12,242
2,COc1ccc(Nc2nc(C)nc3sc4c(c23)CCC4)cc1O,11400
3,O=c1[nH]c(=O)n(C2CC(O)C(CO)O2)cc1I (centres undefined),880
4,COc1c(Br)cc(Br)cc1/C=N/NC(=O)c1cccnc1,10200
5,CCN(CC)c1ccc(NC(=O)CC2Oc3ccccc3NC2=O)c(C)c1 (centres undefined),11600
6,CCCCCCC(=O)N(O)C1CC(=O)N(c2ccc(F)cc2)C1=O (centres undefined),1290
7,Cn1cnc([N+](=O)[O-])c1Sc1nc2ccccc2[nH]1,797
8,COc1ccc(/C=N/NC(=O)c2ccccc2OCc2ccccc2)c(OC)c1,1400
9,COc1ccc(S(=O)(=O)N2CCCOC2CNC(=O)C(=O)NCCc2ccco2)cc1C (centres undefined),9490
10,COc1cc(NC(=O)c2ccc(-c3c(C)noc3C)c3ccoc23)cc(OC)c1OC,3770
11,COc1ccc(S(=O)(=O)Nc2c(C(=O)O)[nH]c3ccc(OC)cc23)c(OC)c1,5750
12,Nc1nc(=S)c2ncn(C3OC(CO)C(O)C3O)c2[nH]1 (centres undefined),4980
13,COc1ccc(-c2nc(C(N)=O)c3[nH]c(=O)n(-c4cccc(Cl)c4)c3n2)cc1OC,5880
14,COc1cc(-n2c(N)c(C(=O)NCc3ccco3)c3nc4ccccc4nc32)cc(OC)c1OC,2090
15,COc1ccc(NC2=C(C)C(=O)CC2)cc1,2940
16,O=C(Cn1ncc(Cl)c(Cl)c1=O)N1CCOCC1,1220
17,COc1ccc(CCn2c(=N)c(C(=O)NCc3ccco3)cc3c(=O)n4ccccc4nc32)cc1OC,6410
18,Cc1cc(NC(=O)CSc2nc3c(C)cccc3cc2C#N)no1,3320
19,Cc1ccc(C(=O)N/C(=C\c2cccs2)C(=O)NCCc2c[nH]c3ccccc23)cc1,378
20,COc1cccc(-c2nn(C)c3sc(C(=O)NCc4ccco4)cc23)c1,3620
21,CCc1ccc(Oc2coc3cc(OCC(=O)Nc4cc(C)ccc4C)ccc3c2=O)cc1,4860
